Like-named read-outs stand apart in the source and are kept apart here.
What was measured:
immobility time = assay: Forced swim test (FST, Porsolt's test) in mice; type: in vivo; conditions: 60 min before test
Experimental: (§1) The behavioral experiments were performed on male BalbC mice weighing 20–25 g, n = 333. The animals were purchased from the Animal House at the Faculty of Pharmacy, Jagiellonian University Medical College, Krakow, Poland. Mice were kept in groups of ten in Makrolon type 3 cages (dimensions 26.5 × 15 × 42 cm). The animals were kept in an environmentally controlled room (ambient temperature 22 ± 2 °C; relative humidity 50–60%; 12:12 light: dark cycle; and lights on at 8:00). They were allowed to acclimatize with the environment enriched by nesting material, tooth grinding material, houses, and toys for 1 week before commencement of the experiments. During acclimatization, mice were accustomed to the presence of female experimenters and their appropriate manner of animals’ restraint, i.e., cupping each separate mouse in open hands, according to the 3Rs recommendations (handling).[50],[51] Standard laboratory food (Sniff M-Z) and filtered water were freely available. All the experiments were conducted in the light phase between 9 AM and 2 PM. Experimental groups consisted of 6–10 randomly selected animals, depending on the experiment, and each animal was used only once. The experiments were performed by an observer who was unaware of the treatment administered. All the experimental procedures with mice were carried out under EU Directive 2010/63/EU and were approved by the Local Ethics Commission for Animal Experiments of Jagiellonian University in Krakow (Approval nos.:297/2019).
(§2) Compounds were injected once intraperitoneally (i.p.) 60 min before tests, at a volume of 10 mL/kg. Control animals received a vehicle injection according to the same schedule.
The FST experiment was carried out according to the method of Porsolt et al.[52] The total duration of immobility was recorded during the last 4 min of this 6 min period. The reduction of immobility time compared to the control was a measure of antidepressant properties of the tested compound. A mouse was regarded as immobile when it remained floating on water, making only small movements to keep its head above it.

5-HT1AR = molecular target: T1, 5-HT1AR (Homo sapiens, UniProt P08908); assay: Radioligand binding assay, [3H]-8-OH-DPAT displacement; conditions: mean ± SD from two independent measurements; read-out: Ki 5-HT1A
T1 sequence (P08908 1-422): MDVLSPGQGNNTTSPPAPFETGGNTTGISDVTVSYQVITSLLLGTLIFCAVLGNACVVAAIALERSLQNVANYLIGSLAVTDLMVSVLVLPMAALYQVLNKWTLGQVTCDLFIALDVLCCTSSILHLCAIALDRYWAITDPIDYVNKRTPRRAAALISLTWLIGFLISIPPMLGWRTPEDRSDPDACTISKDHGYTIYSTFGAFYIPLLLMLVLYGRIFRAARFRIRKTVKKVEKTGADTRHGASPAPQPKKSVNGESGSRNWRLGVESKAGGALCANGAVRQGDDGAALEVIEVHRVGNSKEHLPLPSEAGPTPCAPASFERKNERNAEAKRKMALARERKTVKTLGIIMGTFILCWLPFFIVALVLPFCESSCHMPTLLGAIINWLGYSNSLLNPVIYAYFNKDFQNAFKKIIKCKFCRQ
Experimental: (§3) Cell pellets were thawed and homogenized in 10 vol of assay buffer using an Ultra Turrax tissue homogenizer and centrifuged twice at 35 000 g for 15 min at 4 °C, with incubation for 15 min at 37 °C in between. The composition of the assay buffers was as follows: for 5-HT1AR: 50 mM Tris HCl, 0.1 mM EDTA, 4 mM MgCl2, 10 μM pargyline and 0.1% ascorbate; for 5-HT2AR: 50 mM Tris HCl, 0.1 mM EDTA, 4 mM MgCl2 and 0.1% ascorbate; for 5- HT7bR: 50 mM Tris HCl, 4 mM MgCl2, […] and 0.1% ascorbate; and for dopamine D2LR: 50 mM Tris HCl, 1 mM EDTA, 4 mM MgCl2, 120 mM NaCl, 5 mM KCl, 1.5 mM CaCl2 and 0.1% ascorbate. All assays were incubated in a total volume of […] in 96-well microtiter plates for 1 h at 37 °C, except 5-HT2AR which was incubated at 27 °C. The process of equilibration was terminated by rapid filtration through Unifilter plates with a 96-well cell harvester, and radioactivity retained on the filters was quantified on a Microbeta plate reader (PerkinElmer, USA). For displacement studies, the assay samples contained as radioligands (PerkinElmer, USA): 2.5 nM [^3H]-8-OH-DPAT (135.2 Ci/mmol) for 5-HT1AR; 1 nM [3H]-ketanserin (53.4 Ci/mmol) for 5- HT2AR; 0.8 nM [3H]-5- CT (39.2 Ci/mmol) for 5-HT7R or 2.5 nM [3H]-raclopride (72 Ci/mmol) for D2LR. Nonspecific binding was defined with […] of 5-HT in 5-HT7R binding experiments, whereas […] were used in 5-HT2AR and D2L assays, respectively. Each compound was tested in triplicate at 7 concentrations (10^–10–10^–4 M). The inhibition constants (Ki) were calculated using the Cheng–Prusoff equation.[48] Results were expressed as means of at least two separate experiments.

locomotor activity = assay: Spontaneous locomotor activity in mice; type: in vivo
Experimental: as §1, §2
Locomotor activity was recorded with an Opto M3 multichannel activity monitor (Columbus Instruments, Columbus, USA). […] According to the 3Rs recommendations,[54] locomotor activity was assessed for the minimal active doses obtained in FST and/or FPT to ensure that detected antidepressant-/anxiolytic-like effects are not the result of increased motility of mice.

dopamine D2LR = dopamine D2LR (Homo sapiens, UniProt P14416); assay: Radioligand binding assay, [3H]-raclopride displacement; conditions: mean ± SD from two independent measurements; read-out: Ki D2
dopamine D2LR, sequence (P14416 whole entry): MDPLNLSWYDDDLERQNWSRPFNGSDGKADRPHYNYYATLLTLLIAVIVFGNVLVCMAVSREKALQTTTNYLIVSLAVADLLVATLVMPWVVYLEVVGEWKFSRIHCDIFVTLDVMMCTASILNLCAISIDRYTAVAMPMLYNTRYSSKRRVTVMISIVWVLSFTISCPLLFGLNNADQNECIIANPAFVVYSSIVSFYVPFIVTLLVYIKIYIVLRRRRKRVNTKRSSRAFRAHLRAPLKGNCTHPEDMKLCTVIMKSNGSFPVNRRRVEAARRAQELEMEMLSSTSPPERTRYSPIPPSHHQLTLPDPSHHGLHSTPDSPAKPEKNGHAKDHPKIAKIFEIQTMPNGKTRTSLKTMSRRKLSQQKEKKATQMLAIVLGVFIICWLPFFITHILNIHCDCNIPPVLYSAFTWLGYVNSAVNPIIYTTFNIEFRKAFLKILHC
Experimental: as §3

5-HT7R [1] = molecular target: T2, 5-HT7R (Homo sapiens, UniProt P34969); assay: Radioligand binding assay, [3H]-5-CT displacement; conditions: mean ± SD from two independent measurements; read-out: Ki 5-HT7
T2 sequence (P34969 1-432): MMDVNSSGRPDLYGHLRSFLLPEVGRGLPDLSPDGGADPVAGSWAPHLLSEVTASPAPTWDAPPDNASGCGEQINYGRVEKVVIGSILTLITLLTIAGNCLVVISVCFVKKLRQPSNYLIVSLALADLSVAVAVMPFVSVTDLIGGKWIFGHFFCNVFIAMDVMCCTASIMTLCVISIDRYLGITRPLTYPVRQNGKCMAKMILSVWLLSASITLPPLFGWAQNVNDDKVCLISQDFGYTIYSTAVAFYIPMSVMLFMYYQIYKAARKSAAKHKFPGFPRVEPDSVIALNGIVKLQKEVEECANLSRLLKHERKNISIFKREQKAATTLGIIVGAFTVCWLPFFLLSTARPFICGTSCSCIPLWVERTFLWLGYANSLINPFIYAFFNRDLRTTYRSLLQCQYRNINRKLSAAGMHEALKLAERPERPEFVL
Experimental: as §3

punished crossings = assay: Four-plate test (FPT) in mice; type: in vivo
Experimental: as §1, §2
The four-plate apparatus (Bioseb, Pinellas Park, USA) was used for tests. Following a 15 s habituation period, the animal’s motivation to explore a novel environment is suppressed by an electric foot shock (0.8 mA, 0.5 s) every time it moves from one plate to another during a 1 min test session. This action is referred to as a “punished crossing” and is followed by a 3 s shock interval, during which the animal can move across plates without receiving a shock.[53]

5-HT7R [2] = molecular target: T2, 5-HT7R; parameters: method as in PMID 29439902, PMID 29425815, PMID 28886235, PMID 26900658; conditions: earlier results for the racemic hits; read-out: 5-HT7R Ki of reference hit compounds; cited from earlier work

Ki (5-HT1AR): 5570 ± 1410 nM | locomotor activity number of crossings ± SEM during 3–6 min (locomotor activity; 0.312 mg/kg i.p.): 108.00 ± 42.04; NS | locomotor activity number of crossings ± SEM during 1 min (locomotor activity; 0.312 mg/kg i.p.): 9.75 ± 5.45; NS | locomotor activity number of crossings ± SEM during 60 min (locomotor activity; 0.312 mg/kg i.p.): 702.75 ± 122.53; NS | locomotor activity number of crossings ± SEM during 3–6 min (locomotor activity; 2.5 mg/kg i.p.): 211.50 ± 29.38; NS | locomotor activity number of crossings ± SEM during 1 min (locomotor activity; 2.5 mg/kg i.p.): 16.50 ± 6.12; NS | locomotor activity number of crossings ± SEM during 60 min (locomotor activity; 2.5 mg/kg i.p.): 2482.75 ± 587.23; NS | Ki (dopamine D2LR): 261 ± 38 nM | Ki (5-HT7R [1]): 79 ± 6 nM
SMILES: CC1(c2ccc(F)cc2)NC(=O)N(CC(O)CN2CCN(C(c3ccccc3)c3ccccc3)CC2)C1=O (centres unmarked) [Compound 2]
decrease of immobility time vs vehicle (immobility time; 0.312 mg/kg i.p.): 25% | decrease of immobility time vs vehicle (immobility time; 0.63 mg/kg i.p.): about 40% | decrease of immobility time vs vehicle (immobility time; 1.25 mg/kg i.p.): about 40% | decrease of immobility time vs vehicle (immobility time; 2.5 mg/kg i.p.): about 40% | decrease of immobility time vs vehicle (immobility time; 5 mg/kg i.p.): 26% | increase of number of punished crossings (punished crossings; 2.5 mg/kg i.p.): 62% | increase of number of punished crossings vs vehicle (punished crossings; i.p., active doses): about 60% | Ki (5-HT7R [2]): < 100 nM
